As usually defined, the Km is the concentration of substrate that gives half-maximal velocity.

One data set deals with NADPH oxidase (Homo sapiens, UniProt P04839). Particulars: substrate of the membrane-bound oxidase; cited from earlier work.
For data set [1], the system named is brain tissue and cerebral vessels. The following applies: cited from earlier work.
For data set [2] the following is noted: cited from earlier work.
A short description of data set [3]: Histamine administration time: efficacy and side effects. Particulars: administered over longer than about 30 minutes.
The next data set deals with ROMs. Particulars: predictive example; about 10 μg/kg/day subcutaneous as in Example 3. The protocol: Histamine, a H2-receptor agonist, at approximately 10 μg/kg/day, in a pharmaceutically acceptable form is introduced by subcutaneous injection into a subject experiencing or about to experience MI. The above procedure is repeated daily for 7 days.
Histamine is administered to a patient presenting subendocardial myocardial infarction, as described in Example 3.

In another data set the test system is HCV. The following applies: cited from earlier work.

Turning to `NC(=O)C1=CN([C@@H]2O[C@H](COP(=O)(O)OP(=O)(O)OC[C@H]3O[C@@H](n4cnc5c(N)ncnc54)[C@H](OP(=O)(O)O)[C@@H]3O)[C@@H](O)[C@H]2O)C=CC1` [NADPH], the Km at NADPH oxidase was 45 µM.
`NC(=O)C1=CN([C@@H]2O[C@H](COP(=O)(O)OP(=O)(O)OC[C@H]3O[C@@H](n4cnc5c(N)ncnc54)[C@H](O)[C@@H]3O)[C@@H](O)[C@H]2O)C=CC1` [NADH]: at NADPH oxidase, the Km was 450 µM.
With `C#CCN(C)[C@H](C)Cc1ccccc1` [selegiline, L-deprenyl], the NO production entry in data set [1] (brain tissue and cerebral vessels) is on record as “rapid increases in NO production”. In addition, the “protection of the vascular endothelium” value in data set [1] (toxic effects of amyloid-beta peptide) was “protected the vascular endothelium”. For the same molecule, the memory entry in data set [2] (173 people, after six months) is given as “improved significantly”. Further, in data set [2] (another study, combination with tacrine), the “effect on the benefits of tacrine (Cognex)” value is on record as “enhanced the benefits of tacrine”.
On to `NCCc1c[nH]cn1` [Histamine, histamine], for which, in data set [3], the efficacy entry is “decreased or lack of efficacy”. Moreover, the “release or production of ROMs” value with ROMs was “prevention of the release or production of ROMs”.
For alpha-interferon, the “effectiveness in patients with HCV” value with HCV (chronic HCV infection) was “minimally effective”. In the data set with HCV (in vivo), the “patients experiencing flu-like symptoms” value is listed as 60-80% and the “responding patients relapsing to a more progressive disease state” value is on record as “approximately 70%”.
